Measured values taken from patent US9072293B2, “Cyclopropenes and method for applying cyclopropenes to agricultural products or crops” (Erum Biotechnologies Inc., priority 2010, dated 2015).
“And” between values parts separate entries of the source, which are not always exact repeats. Equal entries are not always repeated.

Key:
[1] = test system: tomato; test: Experimental Example 2: Efficacy test on tomato using oil based formulation (reddening grade); type: in vivo; parameters: key: an area in which the surface of tomato was colored in pink was 10% or less; an area in which the surface of tomato was completely colored in red was 10 to 40%; 2: an area in which the surface of tomato was completely colored in red was 40 to 70%; 3: an area in which the surface of tomato was completely colored in red was 70% or more and the bottom area remained green; 4: an area in which the surface of tomato was most colored in red and only a part of (0 to 10%) the bottom area remained green; 5: the surface of tomato did not entirely color in green; settings: 1.0 mM oil-based formulation, individual tomatoes n=4
Excerpt: (§1) At this time, the tops of tomatoes most early turned red, while the bottoms thereof most lately turned red. For this reason, in order to accurately evaluate the difference in reddening, the coloring evaluated was based on the area of red color, rather than the color of tomatoes. […] Accordingly, the grade level is proportional to the rate at which the tomatoes ripened.
As illustrated in Example 1, in situ, in accordance with the methods of Preparation Examples 15, 16, 17, 18 and 22, five agents (1.0 mmol) such as 1-(2-phenylethyl)cyclopropene, 1-(3-phenylpropyl)cyclopropene, 1-(4-phenylbutyl)cyclopropene, 1-(5-phenylpentyl)cyclopropene and 1-hexylcyclopropene were prepared, 5.0 ml of xylene and 5.0 ml of water were added to the reaction solution, vigorously stirred for 5 minutes and stood. When the mixture was separated into an organic layer (upper layer) and an aqueous layer (lower layer), only the organic layer was collected and the aqueous layer was discarded. […] of hexane was added to the organic layer and homogeneously mixed to prepare a 1.0 mM oil-based formulation.
The tomatoes were screened in the same manner as in Experimental Example 1 and divided into 7 groups (n=4) including a non-treated group, a control group (solvent-treated group) and 5 agent groups. Tomatoes were treated with the previously prepared agent using a household sprayer such that the surface thereof was saturated. The tomatoes were stood at room temperature (25-30° C.) for 3 days and a reddening level thereof was evaluated based on grades of 0 to 5.

[2] = Relative chemical stability of cyclopropenes measured by 1H-NMR; type: physicochemical; settings: for Stability (relative chemical stability, based on cyclopropenes having a chain length of 1): 1H-NMR, CDCl3, stored at −20° C. or room temperature, relative to chain length 1
How it was run: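 Compounds in CDCl3 NMR tubes stored at −20° C. or room temperature and followed by 1H-NMR. Integrals of characteristic 1-alkylcyclopropene peaks (4–6.5 ppm, 1H; 0.8–0.9 ppm, 2H) compared against 1,1,3,3-tetramethylurea internal standard (2.80 ppm); stability expressed relative to chain-length-1 analogue.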

[3] = test system: tomato; test: Experimental Example 1: Efficacy test on tomato using emulsion (reddening grade); type: in vivo; settings: individual tomatoes n=4
Protocol: In situ, a 1.0 mM 1-octylcyclopropene formulation was prepared using (trans)-1-octyl-1-(methanesulfonyloxy)-2-(trimethylsilyl)cyclopropane of Preparation Example 10 in the same manner as in Example 7. This solution was diluted to 1 to 100 times prior to use, as necessary. Experimental Example 1: Efficacy test on tomato using emulsion 1.0 mM formulations of five agents such as 1-(2-phenylethyl)cyclopropene, 1-(3-phenylpropyl)cyclopropene, 1-(4-phenylbutyl)cyclopropene, 1-(5-phenylpentyl)cyclopropene and 1-hexylcyclopropene were prepared in the same manner as in Example 1, and 1.0 mM and 100 μM solutions were prepared therefrom. Then, the effects of the solutions were compared with non-treated groups and control groups in which a surfactant or a stabilizing agent (sodium dodecylbenzenesulfonate or tristyrenylphenykethoxy)12ethanol) is dissolved.
Tomatoes whose top end began to turn pink were screened, harvested and divided into 12 groups (n=4) in total, i.e., non-treated groups, control groups (surfactant) and agent groups with different concentrations such as 100 μM and 1.0 mM. Tomatoes were treated with the prepared agent formulation using a household sprayer such that the surface thereof was saturated. The tomatoes were stood at room temperature (25-30° C.) for 3 days and a reddening level thereof was evaluated based on grades of 0 to 5.
as §1

[4] = Day 0, room temperature (25-30° C.)
[5] = Day 1, room temperature (25-30° C.)
[6] = Day 2, room temperature (25-30° C.)
[7] = Day 3, room temperature (25-30° C.)
[8] = 100 μM, Day 0, room temperature (25-30° C.)
[9] = 100 μM, Day 1, room temperature (25-30° C.)
[10] = 100 μM, Day 2, room temperature (25-30° C.)
[11] = 100 μM, Day 3, room temperature (25-30° C.)
[12] = 1.0 mM, Day 0, room temperature (25-30° C.)
[13] = 1.0 mM, Day 1, room temperature (25-30° C.)
[14] = 1.0 mM, Day 2, room temperature (25-30° C.)
[15] = 1.0 mM, Day 3, room temperature (25-30° C.)

In the case of C1=C(CCc2ccccc2)C1 [(2-Phenylethyl), 1-(2-phenylethyl)cyclopropene], the “Tomato results: reddening level (grade 0 to 5)” value (shortened to “Tomato results: reddening level”) [1, 4] is reported as 0 (an area in which the surface of tomato was colored in pink was 10% or less) (2×) and 1 (an area in which the surface of tomato was completely colored in red was 10 to 40%) and 2 (an area in which the surface of tomato was completely colored in red was 40 to 70%), the “Tomato results: reddening level” value [1, 5] is reported as 1 (an area in which the surface of tomato was completely colored in red was 10 to 40%) (2×) and 2 (an area in which the surface of tomato was completely colored in red was 40 to 70%) and 3 (an area in which the surface of tomato was completely colored in red was 70% or more and the bottom area remained green) and the “Tomato results: reddening level” value [1, 6] is reported as 2 (an area in which the surface of tomato was completely colored in red was 40 to 70%) (2×) and 4 (2×). For the same compound, the “Tomato results: reddening level” value [1, 7] was 4 (2×) and 5 (2×), the “chemical stability (in words)” value [2] was “considerably stable” and the “Stability (relative chemical stability, based on cyclopropenes having a chain length of 1)” value [2] was >10. The “reddening level (grade 0 to 5)” value [3, 8] was 0 (an area in which the surface of tomato was colored in pink was 10% or less) (2×) and 1 (an area in which the surface of tomato was completely colored in red was 10 to 40%) and 2 (an area in which the surface of tomato was completely colored in red was 40 to 70%), the “reddening level (grade 0 to 5)” value [3, 9] was 1 (an area in which the surface of tomato was completely colored in red was 10 to 40%) (2×) and 3 (an area in which the surface of tomato was completely colored in red was 70% or more and the bottom area remained green) (2×) and the “reddening level (grade 0 to 5)” value [3, 10] was 2 (an area in which the surface of tomato was completely colored in red was 40 to 70%) and 3 (an area in which the surface of tomato was completely colored in red was 70% or more and the bottom area remained green) and 4 (2×). For the same compound, the “reddening level (grade 0 to 5)” value [3, 11] was 3 (an area in which the surface of tomato was completely colored in red was 70% or more and the bottom area remained green) and 4 and 5 (2×), the “reddening level (grade 0 to 5)” value [3, 12] was 0 (an area in which the surface of tomato was colored in pink was 10% or less) (2×) and 1 (an area in which the surface of tomato was completely colored in red was 10 to 40%) and 2 (an area in which the surface of tomato was completely colored in red was 40 to 70%) and the “reddening level (grade 0 to 5)” value [3, 13] was 1 (an area in which the surface of tomato was completely colored in red was 10 to 40%) (2×) and 2 (an area in which the surface of tomato was completely colored in red was 40 to 70%) and 3 (an area in which the surface of tomato was completely colored in red was 70% or more and the bottom area remained green). For the same compound, the “reddening level (grade 0 to 5)” value [3, 14] was 2 (an area in which the surface of tomato was completely colored in red was 40 to 70%) (2×) and 3 (an area in which the surface of tomato was completely colored in red was 70% or more and the bottom area remained green) and 4 and the “reddening level (grade 0 to 5)” value [3, 15] was 3 (an area in which the surface of tomato was completely colored in red was 70% or more and the bottom area remained green) (2×) and 4 and 5.

For C1=C(CCCCCc2ccccc2)C1 [(5-Phenylpentyl), 1-(5-phenylpentyl)cyclopropene], the “Tomato results: reddening level” value [1, 4] was 0 (an area in which the surface of tomato was colored in pink was 10% or less) (2×) and 1 (an area in which the surface of tomato was completely colored in red was 10 to 40%) and 2 (an area in which the surface of tomato was completely colored in red was 40 to 70%), the “Tomato results: reddening level” value [1, 5] was 0 (an area in which the surface of tomato was colored in pink was 10% or less) (2×) and 1 (an area in which the surface of tomato was completely colored in red was 10 to 40%) and 2 (an area in which the surface of tomato was completely colored in red was 40 to 70%) and the “Tomato results: reddening level” value [1, 6] was 0 (an area in which the surface of tomato was colored in pink was 10% or less) and 1 (an area in which the surface of tomato was completely colored in red was 10 to 40%) and 2 (an area in which the surface of tomato was completely colored in red was 40 to 70%) and 3 (an area in which the surface of tomato was completely colored in red was 70% or more and the bottom area remained green). The “Tomato results: reddening level” value [1, 7] was 1 (an area in which the surface of tomato was completely colored in red was 10 to 40%) (2×) and 3 (an area in which the surface of tomato was completely colored in red was 70% or more and the bottom area remained green) and 4, the “chemical stability (in words)” value [2] was “much more stable” and the “Stability (relative chemical stability, based on cyclopropenes having a chain length of 1)” value [2] was >>10. For the same compound, the “reddening level (grade 0 to 5)” value [3, 8] was 0 (an area in which the surface of tomato was colored in pink was 10% or less) (2×) and 1 (an area in which the surface of tomato was completely colored in red was 10 to 40%) and 2 (an area in which the surface of tomato was completely colored in red was 40 to 70%), the “reddening level (grade 0 to 5)” value [3, 9] was 0 (an area in which the surface of tomato was colored in pink was 10% or less) (2×) and 2 (an area in which the surface of tomato was completely colored in red was 40 to 70%) (2×) and the “reddening level (grade 0 to 5)” value [3, 10] was 0 (an area in which the surface of tomato was colored in pink was 10% or less) and 1 (an area in which the surface of tomato was completely colored in red was 10 to 40%) and 3 (an area in which the surface of tomato was completely colored in red was 70% or more and the bottom area remained green) (2×). The “reddening level (grade 0 to 5)” value [3, 11] was 1 (an area in which the surface of tomato was completely colored in red was 10 to 40%) and 2 (an area in which the surface of tomato was completely colored in red was 40 to 70%) and 3 (an area in which the surface of tomato was completely colored in red was 70% or more and the bottom area remained green) and 4, the “reddening level (grade 0 to 5)” value [3, 12] was 0 (an area in which the surface of tomato was colored in pink was 10% or less) (2×) and 1 (an area in which the surface of tomato was completely colored in red was 10 to 40%) and 2 (an area in which the surface of tomato was completely colored in red was 40 to 70%) and the “reddening level (grade 0 to 5)” value [3, 13] was 0 (an area in which the surface of tomato was colored in pink was 10% or less) (2×) and 1 (an area in which the surface of tomato was completely colored in red was 10 to 40%) and 2 (an area in which the surface of tomato was completely colored in red was 40 to 70%). For the same compound, the “reddening level (grade 0 to 5)” value [3, 14] was 0 (an area in which the surface of tomato was colored in pink was 10% or less) (2×) and 1 (an area in which the surface of tomato was completely colored in red was 10 to 40%) and 2 (an area in which the surface of tomato was completely colored in red was 40 to 70%) and the “reddening level (grade 0 to 5)” value [3, 15] was 0 (an area in which the surface of tomato was colored in pink was 10% or less) and 1 (an area in which the surface of tomato was completely colored in red was 10 to 40%) and 2 (an area in which the surface of tomato was completely colored in red was 40 to 70%) and 3 (an area in which the surface of tomato was completely colored in red was 70% or more and the bottom area remained green).
